Data published in ChEMBL document CHEMBL1909046, “DrugMatrix in vitro pharmacology data”.

Assays:
[1] = DRUGMATRIX: Nicotinic Acetylcholine radioligand binding (ligand: [125I] Epibatidine); type: cell membranes, Membrane; conditions: imr-32; Not Active = under 50% inhibition at 10 µM
Neutrophil elastase = target: T1, Neutrophil elastase (Homo sapiens, UniProt P08246); type: tissue-based;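 further: inhibition of neutrophil elastase enzyme activity, measured with a p-nitroanilide-linked peptide substrate; in other assays of this panel Not Active means under 50% inhibition at 10 µM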
T1 sequence (P08246 whole entry): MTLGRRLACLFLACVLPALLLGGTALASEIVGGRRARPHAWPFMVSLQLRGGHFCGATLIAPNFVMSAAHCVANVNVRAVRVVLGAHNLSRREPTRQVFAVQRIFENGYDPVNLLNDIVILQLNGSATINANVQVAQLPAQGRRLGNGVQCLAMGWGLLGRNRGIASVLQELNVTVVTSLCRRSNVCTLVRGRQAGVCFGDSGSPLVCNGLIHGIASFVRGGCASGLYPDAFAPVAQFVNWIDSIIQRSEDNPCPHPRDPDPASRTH

Histamine H2 receptor = Histamine H2 receptor (Homo sapiens, UniProt P25021); type: cell membranes, CHO-K1, Membrane; conditions: cho-k1; further: in other assays of this panel Not Active means under 50% inhibition at 10 µM
[2] = target: Epidermal growth factor receptor (Homo sapiens, UniProt P00533); experiment: DRUGMATRIX: Protein Tyrosine Kinase, EGF Receptor enzyme inhibition (substrate: Poly(Glu:Tyr)); type: cell-based, Insect cells; conditions: insect cells; Not Active = under 50% inhibition at 10 µM
[3] = target: T2, Cysteinyl leukotriene receptor 1 (Homo sapiens, UniProt Q9Y271); type: cell membranes, Membrane; conditions: cho-k1; further: in other assays of this panel Not Active means under 50% inhibition at 10 µM
T2 sequence (Q9Y271 whole entry): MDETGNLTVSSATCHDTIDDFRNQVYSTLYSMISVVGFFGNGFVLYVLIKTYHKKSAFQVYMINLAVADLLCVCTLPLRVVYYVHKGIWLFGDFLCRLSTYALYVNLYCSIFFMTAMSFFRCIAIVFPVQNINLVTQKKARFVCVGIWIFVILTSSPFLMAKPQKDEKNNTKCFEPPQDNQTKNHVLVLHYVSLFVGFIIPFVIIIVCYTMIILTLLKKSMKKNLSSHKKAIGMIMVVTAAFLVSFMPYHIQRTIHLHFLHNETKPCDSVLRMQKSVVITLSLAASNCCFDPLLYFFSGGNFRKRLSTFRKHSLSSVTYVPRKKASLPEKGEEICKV

[4] = target: Vascular endothelial growth factor receptor 1 (Homo sapiens, UniProt P17948); experiment: biochemical; type: cell-based, HUVEC; conditions: huvec; further: in other assays of this panel Not Active means under 50% inhibition at 10 µM
Acetylcholinesterase = Acetylcholinesterase (Homo sapiens, UniProt P22303); experiment: DRUGMATRIX: Acetylcholinesterase enzyme inhibition (substrate: acetylthiocholine); type: cell-based, HEK293; conditions: hek293; Not Active = under 50% inhibition at 10 µM
Acetylcholinesterase, sequence (P22303 whole entry): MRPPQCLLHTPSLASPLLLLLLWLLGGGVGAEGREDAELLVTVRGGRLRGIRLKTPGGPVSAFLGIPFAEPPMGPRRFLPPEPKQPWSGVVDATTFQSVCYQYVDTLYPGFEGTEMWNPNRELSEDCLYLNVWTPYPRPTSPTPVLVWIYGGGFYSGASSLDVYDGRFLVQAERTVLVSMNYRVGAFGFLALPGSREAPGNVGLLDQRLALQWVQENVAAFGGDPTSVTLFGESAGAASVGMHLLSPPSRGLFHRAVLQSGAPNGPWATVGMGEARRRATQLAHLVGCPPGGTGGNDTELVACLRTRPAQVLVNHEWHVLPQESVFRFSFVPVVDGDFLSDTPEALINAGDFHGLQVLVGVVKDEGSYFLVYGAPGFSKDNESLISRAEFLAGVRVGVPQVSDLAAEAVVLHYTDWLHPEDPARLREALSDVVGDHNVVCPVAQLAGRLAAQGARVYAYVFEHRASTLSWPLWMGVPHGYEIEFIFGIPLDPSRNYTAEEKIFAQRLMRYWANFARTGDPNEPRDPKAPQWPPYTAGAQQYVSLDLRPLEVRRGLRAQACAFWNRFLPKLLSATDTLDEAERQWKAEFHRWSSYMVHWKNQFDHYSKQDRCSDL

Histamine H2 receptor, sequence (P25021 whole entry): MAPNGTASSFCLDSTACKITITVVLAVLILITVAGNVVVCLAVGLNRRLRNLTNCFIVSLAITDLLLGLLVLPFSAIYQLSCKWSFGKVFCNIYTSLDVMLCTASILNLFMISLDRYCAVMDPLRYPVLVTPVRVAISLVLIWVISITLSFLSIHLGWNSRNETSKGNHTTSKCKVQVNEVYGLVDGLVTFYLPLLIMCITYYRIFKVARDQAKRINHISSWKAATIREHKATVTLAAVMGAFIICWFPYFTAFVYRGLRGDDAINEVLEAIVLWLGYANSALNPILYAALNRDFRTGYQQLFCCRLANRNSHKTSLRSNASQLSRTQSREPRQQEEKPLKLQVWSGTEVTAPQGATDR
Vascular endothelial growth factor receptor 1, sequence (P17948 whole entry): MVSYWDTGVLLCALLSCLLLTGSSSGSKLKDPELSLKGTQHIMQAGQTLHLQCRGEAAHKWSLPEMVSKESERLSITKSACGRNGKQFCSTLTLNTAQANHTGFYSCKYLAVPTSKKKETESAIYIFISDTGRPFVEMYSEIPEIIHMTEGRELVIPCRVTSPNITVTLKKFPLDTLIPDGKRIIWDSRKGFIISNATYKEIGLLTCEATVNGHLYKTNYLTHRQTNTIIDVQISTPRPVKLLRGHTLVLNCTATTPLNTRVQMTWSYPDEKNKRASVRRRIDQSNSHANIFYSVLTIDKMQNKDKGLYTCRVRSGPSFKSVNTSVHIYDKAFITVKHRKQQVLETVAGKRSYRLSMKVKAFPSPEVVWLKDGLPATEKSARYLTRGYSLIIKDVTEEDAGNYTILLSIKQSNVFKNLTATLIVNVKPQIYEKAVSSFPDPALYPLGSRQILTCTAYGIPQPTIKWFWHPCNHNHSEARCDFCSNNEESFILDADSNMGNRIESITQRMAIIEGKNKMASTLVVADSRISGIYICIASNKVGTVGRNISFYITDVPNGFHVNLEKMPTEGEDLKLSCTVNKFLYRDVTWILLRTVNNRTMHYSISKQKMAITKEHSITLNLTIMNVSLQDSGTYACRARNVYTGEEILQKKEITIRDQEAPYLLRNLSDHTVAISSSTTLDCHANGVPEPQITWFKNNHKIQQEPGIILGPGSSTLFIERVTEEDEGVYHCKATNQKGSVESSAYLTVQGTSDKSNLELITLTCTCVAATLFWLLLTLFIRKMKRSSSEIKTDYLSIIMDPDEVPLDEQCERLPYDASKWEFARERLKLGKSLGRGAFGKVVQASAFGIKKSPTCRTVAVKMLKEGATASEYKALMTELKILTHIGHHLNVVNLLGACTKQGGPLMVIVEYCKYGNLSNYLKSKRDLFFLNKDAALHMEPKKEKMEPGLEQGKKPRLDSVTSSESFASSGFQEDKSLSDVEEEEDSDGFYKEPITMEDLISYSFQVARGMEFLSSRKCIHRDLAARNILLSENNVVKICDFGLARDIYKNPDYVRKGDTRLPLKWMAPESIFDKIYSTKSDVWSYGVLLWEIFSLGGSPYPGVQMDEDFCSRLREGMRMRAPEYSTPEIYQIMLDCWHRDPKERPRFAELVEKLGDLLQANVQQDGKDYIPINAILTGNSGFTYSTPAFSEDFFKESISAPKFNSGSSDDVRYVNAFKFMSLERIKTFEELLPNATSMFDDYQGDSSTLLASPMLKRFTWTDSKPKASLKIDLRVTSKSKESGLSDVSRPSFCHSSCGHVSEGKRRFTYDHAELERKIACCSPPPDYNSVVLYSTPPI

OCCN1CCN(CCCN2c3ccccc3Sc3ccc(Cl)cc32)CC1 [PERPHENAZINE]
Not Active: IC50 [1] | Ki [1] | IC50 (Neutrophil elastase) | IC50 (Histamine H2 receptor) | IC50 [2] | IC50 [3] | IC50 [4] | IC50 (Acetylcholinesterase)

CCCCC1C(=O)N(c2ccccc2)N(c2ccccc2)C1=O [PHENYLBUTAZONE]
Not Active: IC50 [1] | Ki [1] | IC50 (Neutrophil elastase) | IC50 (Histamine H2 receptor) | IC50 [2] | IC50 [3] | IC50 [4] | IC50 (Acetylcholinesterase)

Cc1cccc(Nc2cc(Cl)nc(SCC(=O)O)n2)c1C [PIRINIXIC ACID]
Not Active: IC50 [1] | Ki [1] | IC50 (Neutrophil elastase) | IC50 (Histamine H2 receptor) | IC50 [2] | IC50 [3] | IC50 [4] | IC50 (Acetylcholinesterase)

CC[C@H](C)C(=O)O[C@H]1C[C@H](O)C=C2C=C[C@H](C)[C@H](CC[C@@H](O)C[C@@H](O)CC(=O)O)[C@H]21 [PRAVASTATIN]
Not Active: IC50 [1] | Ki [1] | IC50 (Neutrophil elastase) | IC50 (Histamine H2 receptor) | IC50 [2] | IC50 [3] | IC50 [4] | IC50 (Acetylcholinesterase)

CC(C)(Sc1cc(C(C)(C)C)c(O)c(C(C)(C)C)c1)Sc1cc(C(C)(C)C)c(O)c(C(C)(C)C)c1 [PROBUCOL]
Not Active: IC50 [1] | Ki [1] | IC50 (Neutrophil elastase) | IC50 (Histamine H2 receptor) | IC50 [2] | IC50 [3] | IC50 [4] | IC50 (Acetylcholinesterase)

COBALT(II) ACETYLACETONATE
Not Active: IC50 [1] | Ki [1] | IC50 (Neutrophil elastase) | Ki (Neutrophil elastase) | IC50 (Histamine H2 receptor) | Ki (Histamine H2 receptor) | IC50 [2] | Ki [2] | IC50 [3] | Ki [3] | IC50 [4] | Ki [4] | IC50 (Acetylcholinesterase) | Ki (Acetylcholinesterase)

INSULIN HUMAN
Not Active: IC50 [1] | Ki [1] | IC50 (Neutrophil elastase) | Ki (Neutrophil elastase) | IC50 (Histamine H2 receptor) | Ki (Histamine H2 receptor) | IC50 [2] | Ki [2] | IC50 [3] | Ki [3] | IC50 [4] | Ki [4] | IC50 (Acetylcholinesterase) | Ki (Acetylcholinesterase)

POLYVINYL ALCOHOL
Not Active: IC50 [1] | Ki [1] | IC50 (Neutrophil elastase) | Ki (Neutrophil elastase) | IC50 (Histamine H2 receptor) | Ki (Histamine H2 receptor) | IC50 [2] | Ki [2] | IC50 [3] | Ki [3] | IC50 [4] | Ki [4] | IC50 (Acetylcholinesterase) | Ki (Acetylcholinesterase)
